The values that follow come from patent US4341766A, “Deactivation of antibiotic-hydrolyzing enzymes” (priority 1980, dated 1982).

Read-outs that look alike come from different tables or passages of the source.

Assay [1] deals with T1, E. coli RTEM β-lactamase (Escherichia coli, UniProt P62593).
T1 construct: mature periplasmic enzyme
Description: rate constant (kcat) of the corresponding N-acyl derivative of 6-aminopenicillanic acid as β-lactamase substrate. In kind it is biochemical. The text has this:
We believe the acyl-enzyme intermediates either deacylate (resulting in the undesirable restoration of the lactamase) or fragment (resulting in the desirable deactivation of the lactamase). […] This can be achieved by employing an N-acyl derivative of 6-aminopenicillanic acid sulfone in which the corresponding N-acyl derivative of 6-aminopenicillanic acid is a very poor substrate for β-lactamase. Since the rate constant (kcat) of an N-acyl derivative of 6-aminopenicillanic acid is a measure of its ability to act as a substrate, this constant provides the basis for defining the class of sulfones used in the invention.
Quinacillin sulfone's effectiveness is shown both by the low inactivation time, and by the low number of turnovers before inactivation (the low number of molecules of quinacillin sulfone needed to inactivate one β-lactamase molecule).

The target of assay [2] is T1, E. coli RTEM β-lactamase. Nature of the assay: in vitro treatment of E. coli RTEM β-lactamase (deactivation). It is filed as biochemical. As to conditions: for turnovers before deactivation: number of molecules of compound needed to inactivate one β-lactamase molecule; for t1/2 for deactivation: in vitro, E. coli RTEM β-lactamase; for comparative efficacy as β-lactamase deactivating agent: in words, comparison of the four compounds of Table I.

T1 sequence (P62593 24-286 limits assumed): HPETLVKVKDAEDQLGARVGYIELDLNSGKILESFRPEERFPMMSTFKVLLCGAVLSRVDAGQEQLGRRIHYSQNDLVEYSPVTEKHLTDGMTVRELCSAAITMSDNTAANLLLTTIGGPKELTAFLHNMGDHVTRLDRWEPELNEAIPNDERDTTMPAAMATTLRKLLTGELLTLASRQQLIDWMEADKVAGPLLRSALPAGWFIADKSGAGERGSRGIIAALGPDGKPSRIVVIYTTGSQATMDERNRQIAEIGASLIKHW

Turning to `CC1(C)[C@H](C(=O)O)N2C(=O)C[C@H]2S1(=O)=O` [CP-45, 899, 6-des-aminopenicillanic acid sulfone, reference compound], the “kcat of corresponding N-acyl derivative of 6-aminopenicillanic acid” value on E. coli RTEM β-lactamase [1] worked out at 40 s⁻¹. The turnovers before deactivation on E. coli RTEM β-lactamase [2] is listed as 4,500.
Regarding `Cc1onc(-c2ccccc2Cl)c1C(=O)N[C@@H]1C(=O)N2[C@@H](C(=O)O)C(C)(C)S(=O)(=O)[C@H]12` [cloxacillin sulfone], on E. coli RTEM β-lactamase [2], the t1/2 for deactivation turned out to be 1.5 min; the “comparative efficacy as β-lactamase deactivating agent” value is on record as “effective deactivating agents, though less effective than quinacillin sulfone”; the turnovers before deactivation was 17,000.
For the compound `COc1cccc(OC)c1C(=O)N[C@@H]1C(=O)N2[C@@H](C(=O)O)C(C)(C)S(=O)(=O)[C@H]12` [methicillin sulfone], on E. coli RTEM β-lactamase [2], the t1/2 for deactivation is given as ~ 1 min; the “comparative efficacy as β-lactamase deactivating agent” value is recorded as “effective deactivating agents, though less effective than quinacillin sulfone”; the turnovers before deactivation is reported as 22,500.
Taken in the same sequence, the figures for `CC1(C)[C@H](C(=O)O)N2C(=O)[C@@H](NC(=O)c3nc4ccccc4nc3C(=O)O)[C@H]2S1(=O)=O` [quinacillin sulfone] were ~ 1 min, “most effective of the four compounds listed” and 400.
As to `CC1(C)S[C@@H]2[C@H](NC(=O)c3nc4ccccc4nc3C(=O)O)C(=O)N2[C@H]1C(=O)O` [quinacillin], the “kcat of corresponding N-acyl derivative of 6-aminopenicillanic acid” value on E. coli RTEM β-lactamase [1] (value belongs to the parent (non-sulfone) penicillin corresponding to the listed sulfone, substrate capability for β-lactamase) is listed as “lowest kcat value”.
